Test results reported in patent EP1206482B1, “METHOD FOR COUPLING, IN SOLUTION, A PEPTIDE WITH AT LEAST ANOTHER COMPOUND AND USES THEREOF” (INSTITUT PASTEUR DE LILLE, priority 1999, dated 2001).
Starred links: 1 amine or outer side, 2 acyl side, 3 side chain; linkers in the order of their positions; H or OH if unused. Non-standard residues stand in square brackets, D forms with d. No end group written: not given here. Hydrazinoacetyl = O=C(CNN[*:1])[*:2]

Tested on: molécules de classe II du CMH
Assay: Quantification of surface expression of MHC class II molecules by flow cytometry (anti-HLA DR-FITC) after 24 h stimulation of cells with peptides or lipopeptides
Assay type: cell-based, humaine
Details: for Moyenne: mean fluorescence of treated COLO 205 cells; for Rapport: ratio of mean fluorescence of treated to untreated COLO 205 cells
Description: Les cellules COLO 205 (lignée cellulaire humaine issue d'un carcinome de colon) proviennent de la banque de cellules ATCC (American Type Culture Collection). Elles sont cultivées en milieu RPMI 1640 (Gibco BRL, Courbevoie, France) avec 10% de sérum de veau foetal (SVF) et 5 mM de pyruvate de sodium, et incubées à 37°C en présence de 5% de CO2. Les cellules sont stimulées pendant 24 heures avec différentes concentrations (35, 50 ou 65 µM) de peptides ou de lipopeptides. Les cellules sont ensuite marquées pendant 1 heure à 4°C avec 10 µl d'anticorps de souris anti-HLA DR de classe-II, couplé à la FITC (clone TAL, 1B5, Cymbus Biotechnology Ltd, Hants, Grande-Bretagne) dans 10% de SVF/PBS, puis lavées 3 fois par du SVF/PBS.
L'expression de surface des molécules de classe II du CMH est analysée par cytométrie de flux sur un cytomètre Coulter EPICS II, à raison de 10 000 évènements par échantillon. L'intensité de fluorescence observée est directement proportionnelle à la quantité de molécules de classe II du CMH présente à la surface des cellules. La moyenne de fluorescence observée pour les cellules non traitées et pour les cellules traitées (colonne « Moyenne» dans le tableau II) permet de calculer un rapport entre la moyenne de fluorescence des cellules traitées et la moyenne de fluorescence des cellules non traitées (colonne « Rapport » dans le tableau II).

Substance | Moyenne (35 µM) | Moyenne (50 µM) | Moyenne (65 µM) | Rapport (35 µM) | Rapport (50 µM) | Rapport (65 µM)
H2N-NH-CH2CO-PSRENQNAVKIQKLSVVLRREQKHRVERLAFRNQSLPF-NH2 ([Hydrazinoacetyl]PSRENQNAVKIQKLSVVLRREQKHRVERLAFRNQSLPF-NH2; N-terminus assumed; SMILES CC[C@H](C)[C@H](NC(=O)[C@H](CCCCN)NC(=O)[C@@H](NC(=O)[C@H](C)NC(=O)[C@H](CC(N)=O)NC(=O)[C@H](CCC(N)=O)NC(=O)[C@H](CC(N)=O)NC(=O)[C@H](CCC(=O)O)NC(=O)[C@H](CCCNC(=N)N)NC(=O)[C@H](CO)NC(=O)[C@@H]1CCCN1C(=O)CNN)C(C)C)C(=O)N[C@@H](CCC(N)=O)C(=O)N[C@@H](CCCCN)C(=O)N[C@@H](CC(C)C)C(=O)N[C@@H](CO)C(=O)N[C@H](C(=O)N[C@H](C(=O)N[C@@H](CC(C)C)C(=O)N[C@@H](CCCNC(=N)N)C(=O)N[C@@H](CCCNC(=N)N)C(=O)N[C@@H](CCC(=O)O)C(=O)N[C@@H](CCC(N)=O)C(=O)N[C@@H](CCCCN)C(=O)N[C@@H](Cc1c[nH]cn1)C(=O)N[C@@H](CCCNC(=N)N)C(=O)N[C@H](C(=O)N[C@@H](CCC(=O)O)C(=O)N[C@@H](CCCNC(=N)N)C(=O)N[C@@H](CC(C)C)C(=O)N[C@@H](C)C(=O)N[C@@H](Cc1ccccc1)C(=O)N[C@@H](CCCNC(=N)N)C(=O)N[C@@H](CC(N)=O)C(=O)N[C@@H](CCC(N)=O)C(=O)N[C@@H](CO)C(=O)N[C@@H](CC(C)C)C(=O)N1CCC[C@H]1C(=O)N[C@@H](Cc1ccccc1)C(N)=O)C(C)C)C(C)C)C(C)C) [peptide 22Sc] | 1,36 | 1,60 | 1,67 | 1,8 | 2,18 | 2,27
palm-NH-NH-CH2CO-PSRENQNAVKIQKLSVVLRREQKHR-VERLAFRNQSLPF-NH2 [peptide 23Sc] | 4,72 | 4,51 | 5,55 | 9,16 | 6,15 | 7,5
